Results as given in US20100022483A1, “Substituted Tetracycline Compounds” (Paratek Pharmaceuticals, Inc., priority 2008, published 2010).
Converted amounts (≈) assume the structure as drawn. Like-named read-outs stand apart in the source and are kept apart here.

Experiments:
[1] = system: gram positive bacteria; assay: In vitro anti-bacterial activity assay (broth dilution MIC), gram positive bacteria; type: cell-based, S. aureus; details: 18 h
Source text: (§1) Bacterial infections may be caused by a wide variety of gram positive and gram negative bacteria. Some of the compounds of the invention are useful as antibiotics against organisms which are resistant and/or sensitive to other tetracycline compounds. The antibiotic activity of the tetracycline compounds of the invention may by using the in vitro standard broth dilution method described in Waitz, J. A., CLSI, Document M7-A2, vol. 10, no. 8, pp. 13-20, 2nd edition, Villanova, Pa. (1990).
(§2) The following assay was used to determine the efficacy of the tetracycline compounds against gram positive and gram negative bacteria. 2 mg of each compound was dissolved in 100 μl of DMSO. […] The tetracycline compound solutions were diluted to 50 μL volumes, with a test compound concentration of 0.098 μg/ml. Optical density (OD) determinations were made from fresh log-phase broth cultures of the test strains. Dilutions were made to achieve a final cell density of […] CFU/ml. At OD=1, cell densities for different genera were approximately:
(§3) 50 μl of the cell suspensions were added to each well of microtiter plates. The final cell density was approximately 5×10^5 CFU/ml. These plates were incubated at 35° C. in an ambient air incubator for approximately 18 hours. The plates were read with a microplate reader and were visually inspected when necessary. The MIC was defined as the lowest concentration of the tetracycline compound that inhibits growth. Table 3 includes MIC data for several substituted tetracycline compounds.

[2] = system: gram negative bacteria; assay: In vitro anti-bacterial activity assay (broth dilution MIC), gram negative bacteria; type: cell-based, E. coli
Source text: as §1, §2, §3

[3] = Mammalian cytotoxicity assay (resazurin), COS-1 cells; type: cell-based; details: African green monkey, read-out: Cytotox. COS-1
Experimental: (§4) COS-1 and CHO-K1 cell suspensions were prepared, seeded into 96-well tissue culture treated black-walled microtiter plates (density determined by cell line), and incubated overnight at 37° C., in 5% CO2 and approximately 95% humidity. The following day, serial dilutions of compound were prepared under sterile conditions and transferred to cell plates. Cell/Compound plates were incubated under the above conditions for 24 hours. Following the incubation period, media/compound was aspirated and 50 μl of resazurin (0.042 mg/ml in PBS w/Ca and Mg) is added. The plates were then incubated under the above conditions for 2 hours and then placed in the dark at room temperature for an additional 30 minutes. Fluorescence measurements were taken (excitation 535 nm, emission 590 nm). The IC50 (concentration of compound causing 50% growth inhibition) was then calculated. Table 3 includes IC50 data for several substituted tetracycline compounds.

[4] = in vitro; type: cell-based; details: Chinese hamster, Cytotox. CHO-K1
Experimental: as §4

[5] = system: 3T3 fibroblast cells; assay: In vitro phototoxicity assay (neutral red; UV light-treated vs dark control plates); type: cell-based; details: for Photo Toxicity UV Tox50: UV light 50 minutes; for Photo Toxicity Dark Tox50: dark control plate
Experimental: 3T3 fibroblast cells were harvested and plated at a concentration of 1×10^5 cells/mL and the plates were incubated overnight at 37° C., in 5% CO2 and approximately 95% humidity. On the following day the medium was removed from the plates and replaced with Hanks' Balanced Salt Solution (HBSS). Compound dilutions were made in HBSS and added to the plates. For each compound tested, a duplicate plate was prepared that was not exposed to light as a control for compound toxicity. Plates were then incubated in a dark drawer (for controls), or under UV light (meter reading of 1.6-1.8 mW/cm^2) for 50 minutes. Cells were then washed with HBSS, fresh medium was added, and plates were incubated overnight as described above. The following day neutral red was added as an indicator of cell viability. The plates were then incubated for an additional 3 hours. Cells were then washed with HBSS and blotted on absorbent paper to remove excess liquid. A solution of 50% EtOH, 10% glacial acetic acid was added and after 20 minutes incubation the plate's absorbance at 535 nm was read using a Wallac Victor 5 spectrophotometer. The phototoxicity reflected the difference between the light-treated and control cultures. Table 3 includes phototoxicity (μM) data for several substituted tetracycline compounds.

[6] = Staphylococcus aureus, S. aureus MRSA5, read-out: Median MIC's G+ S. aureus MRSA5
[7] = Staphylococcus aureus, S. aureus RN450, read-out: Median MIC's G+ S. aureus RN450
[8] = Escherichia coli, 18 h, E. coli D1 209, read-out: Median MIC's G− E. coli D1 209
[9] = Streptococcus pneumoniae, S. pneumoniae 157E-Strep, read-out: Median MIC's G+ S. pneumoniae 157E-Strep
[10] = Escherichia coli, 18 h, E. coli MG 1655, read-out: Median MIC's G− E. coli MG 1655
[11] = Escherichia coli, ATCC25922, 18 h, E. coli ATCC 25922, read-out: Median MIC's G− E. coli ATCC 25922
[12] = Pseudomonas aeruginosa, 18 h, P. aeruginosa K201 PAO6609, read-out: Median MIC's G− P. aeruginosa K201 PAO6609

Row | Compound | MIC [1, 6] [µg/mL] | MIC [1, 7] [µg/mL] | MIC [2, 8] [µg/mL] | IC50 at 24 h [3] [µM] | IC50 at 24 h [4] [µM] | MIC [1, 9] [µg/mL] | MIC [2, 10] [µg/mL] | MIC [2, 11] [µg/mL] | MIC [2, 12] [µg/mL] | Photo Toxicity UV Tox50 [5] [µM] | Photo Toxicity Dark Tox50 [5] [µM] | MIC ([2]; Escherichia coli, 18 h, read-out: Median MIC's G− E. coli D1 209, E. coli D1 209) [µg/mL]
1 | CN(C)C(=O)c1cccc(-c2ccc(O)c3c2C[C@H]2C[C@H]4[C@H](N(C)C)C(O)=C(C(N)=O)C(=O)[C@@]4(O)C(O)=C2C3=O)c1 [AC] | 16 (≈ 28.5 µM) | 0.25 (≈ 0.445 µM) | 64 (≈ 114 µM) | > 37.6 | > 9.4 | – | – | – | – | – | – | –
2 | CN(C)CCCCNCc1ccc(O)c2c1C[C@H]1C[C@H]3[C@H](N(C)C)C(O)=C(C(N)=O)C(=O)[C@@]3(O)C(O)=C1C2=O [CN, (4S,4aS,5aR,12aS)-4-Dimethylamino-7-[(4-dimethylamino-butylamino)-methyl]-3,10,12,12a-tetrahydroxy-1,11-dioxo-1,4,4a,5,5a,6,11,12a-octahydro-naphthacene-2-carboxylic acid amide] | 64 (≈ 118 µM) | 16 (≈ 29.5 µM) | 64 (≈ 118 µM) | > 138 | > 138 | 32 (≈ 59 µM) | 32 (≈ 59 µM) | 32 (≈ 59 µM) | 64 (≈ 118 µM) | >138.03 | >138.03 | –
3 | CN(C)[C@H]1C(O)=C(C(N)=O)C(=O)[C@@]2(O)C(O)=C3C(=O)c4c(O)ccc(-c5cnc6ccccc6c5)c4C[C@H]3C[C@@H]12 [H] | 2 (≈ 3.69 µM) | 0.5 (≈ 0.923 µM) | 64 (≈ 118 µM) | > 15.9 | > 15.9 | 0.25 (≈ 0.462 µM) | 64 (≈ 118 µM) | 64 (≈ 118 µM) | 64 (≈ 118 µM) | >159.48 | >159.48 | –
4 | CN(C)CCN(C)Cc1cccc(-c2ccc(O)c3c2C[C@H]2C[C@H]4[C@H](N(C)C)C(O)=C(C(N)=O)C(=O)[C@@]4(O)C(O)=C2C3=O)c1 [CT] | 4 (≈ 6.61 µM) | 0.0625 (≈ 0.103 µM) | 4 (≈ 6.61 µM) | > 126 | > 126 | 0.06 (≈ 0.0992 µM) | 2 (≈ 3.31 µM) | 2 (≈ 3.31 µM) | 64 (≈ 106 µM) | >126.03 | >126.03 | –
5 | CN(C)CCNC(=O)c1cccc(-c2cc(N(C)C)c3c(c2O)C(=O)C2=C(O)[C@]4(O)C(=O)C(C(N)=O)=C(O)[C@@H](N(C)C)[C@@H]4C[C@@H]2C3)c1 [V, (4S,4aS,5aR,12aS)-4,7-Bis-dimethylamino-9-[3-(2-dimethylamino-ethylcarbamoyl)-phenyl]-3,10,12,12a-tetrahydroxy-1,11-dioxo-1,4,4a,5,5a,6,11,12a-octahydro-naphthacene-2-carboxylic acid amide] | 64 (≈ 98.8 µM) | 16 (≈ 24.7 µM) | 64 (≈ 98.8 µM) | > 125 | > 125 | 32 (≈ 49.4 µM) | 64 (≈ 98.8 µM) | 64 (≈ 98.8 µM) | 64 (≈ 98.8 µM) | >125.47 | >125.47 | –
6 | CN(C)[C@@H]1C(O)=C(C(N)=O)C(=O)[C@@]2(O)C(O)=C3C(=O)c4c(O)ccc(C(=O)CNCC(C)(C)C)c4C[C@H]3C[C@@H]12 [BP] | 16 (≈ 29.5 µM) | 2 (≈ 3.69 µM) | 64 (≈ 118 µM) | > 42.9 | > 42.9 | 2 (≈ 3.69 µM) | 32 (≈ 59.1 µM) | 32 (≈ 59.1 µM) | 64 (≈ 118 µM) | >138.32 | >138.32 | –
7 | CCN(CC)CCNC(=O)c1cccc(-c2ccc(O)c3c2C[C@H]2C[C@H]4[C@H](N(C)C)C(O)=C(C(N)=O)C(=O)[C@@]4(O)C(O)=C2C3=O)c1 [E, (4S,4aS,5aR,12aS)-7-[3-(2-Diethylamino-ethylcarbamoyl)-phenyl]-4-dimethylamino-3,10,12,12a-tetrahydroxy-1,1′-dioxo-1,4,4a,5,5a,6,11,12a-octahydro-naphthacene-2-carboxylic acid amide] | 16 (≈ 25.3 µM) | 0.5 (≈ 0.79 µM) | 64 (≈ 101 µM) | > 139 | > 139 | 0.125 (≈ 0.198 µM) | 8 (≈ 12.6 µM) | 8 (≈ 12.6 µM) | 64 (≈ 101 µM) | >138.88 | >138.88 | –
8 | COC(=O)c1ccc(-c2ccc(O)c3c2C[C@H]2C[C@H]4[C@H](N(C)C)C(O)=C(C(N)=O)C(=O)[C@@]4(O)C(O)=C2C3=O)cc1 [AR] | 0.315 (≈ 0.574 µM) | 0.06 (≈ 0.109 µM) | – | 4.8 | < 2.53 | 0.25 (≈ 0.456 µM) | – | – | – | – | – | 64 (≈ 117 µM)
9 | COc1ccc(CNCc2ccc(-c3ccc(O)c4c3C[C@H]3C[C@H]5[C@H](N(C)C)C(O)=C(C(N)=O)C(=O)[C@@]5(O)C(O)=C3C4=O)cc2)cc1 (stereo in doubt) [AW] | 1 (≈ 1.56 µM) | 0.06 (≈ 0.0938 µM) | 1 (≈ 1.56 µM) | < 1.97 | 13.5 | 0.06 (≈ 0.0938 µM) | – | – | – | – | – | –
10 | CN(C)c1cc(-c2ccc(CN3CCN(CCO)CC3)o2)c(O)c2c1C[C@H]1C[C@H]3[C@H](N(C)C)C(O)=C(C(N)=O)C(=O)[C@@]3(O)C(O)=C1C2=O [BA] | 64 (≈ 96.1 µM) | 1 (≈ 1.5 µM) | 64 (≈ 96.1 µM) | > 111 | > 111 | 2 (≈ 3 µM) | – | – | – | – | – | –
11 | COCc1cccc(-c2ccc(O)c3c2C[C@H]2C[C@H]4[C@H](N(C)C)C(O)=C(C(N)=O)C(=O)[C@@]4(O)C(O)=C2C3=O)c1 [DB] | 0.5 (≈ 0.935 µM) | 0.06 (≈ 0.112 µM) | 64 (≈ 120 µM) | 10.4 | 13.2 | 0.06 (≈ 0.112 µM) | – | – | – | – | – | –
12 | CN1CCN(Cc2ccc(-c3ccc(O)c4c3C[C@H]3C[C@H]5[C@@H](N(C)C)C(O)=C(C(N)=O)C(=O)[C@@]5(O)C(O)=C3C4=O)o2)CC1 [AY] | 32 (≈ 54 µM) | 0.5 (≈ 0.844 µM) | 64 (≈ 108 µM) | > 32 | > 32 | 0.25 (≈ 0.422 µM) | – | – | – | – | – | –
13 | CC(C)OC(=O)c1cccc(-c2ccc(O)c3c2C[C@H]2C[C@H]4[C@H](N(C)C)C(O)=C(C(N)=O)C(=O)[C@@]4(O)C(O)=C2C3=O)c1 [AU] | 1 (≈ 1.73 µM) | 0.25 (≈ 0.434 µM) | 64 (≈ 111 µM) | 4.56 | 6.12 | 0.5 (≈ 0.867 µM) | – | – | – | – | – | –
14 | CN(C)[C@@H]1C(O)=C(C(N)=O)C(=O)[C@@]2(O)C(O)=C3C(=O)c4c(O)ccc(-c5ccccc5)c4C[C@H]3C[C@@H]12 [AQ] | 0.25 (≈ 0.51 µM) | 0.06 (≈ 0.122 µM) | 8 (≈ 16.3 µM) | 6.06 | 6.91 | 0.06 (≈ 0.122 µM) | – | – | – | – | – | –
15 | CC(=O)c1cccc(-c2ccc(O)c3c2C[C@H]2C[C@H]4[C@H](N(C)C)C(O)=C(C(N)=O)C(=O)[C@@]4(O)C(O)=C2C3=O)c1 [AS] | 0.5 (≈ 0.939 µM) | 0.06 (≈ 0.113 µM) | 64 (≈ 120 µM) | – | – | 0.06 (≈ 0.113 µM) | – | – | – | – | – | –
16 | CN(C)[C@@H]1C(O)=C(C(N)=O)C(=O)[C@@]2(O)C(O)=C3C(=O)c4c(O)ccc(-c5ccc(CN6CCOCC6)o5)c4C[C@H]3C[C@@H]12 [AX] | 4 (≈ 6.9 µM) | 0.06 (≈ 0.104 µM) | 8 (≈ 13.8 µM) | 27.1 | > 32.6 | 0.06 (≈ 0.104 µM) | – | – | – | – | – | –
